Read-outs that look alike come from different tables or passages of the source.
Tests used:
[1] = system: mixture of Pseudomonas aeruginosa, Klebsiella pneumoniae, Staphylococcus aureus, and Bacillus subtilis; assay: Growth inhibition assay; format: cell-based; details: for % Inhibition of growth by CTAC: Table 3, single active
From the text: The growth inhibition assay used in the Examples measures inhibition of growth (or lack thereof) of a microbial consortium. Inhibition of growth can be the result of killing of the cells (so no growth occurs), killing of a significant portion of the populations of cells so that regrowth requires a prolonged time, or inhibition of growth without killing (stasis). Regardless of the mechanism of action, the impact of a biocide (or combination of biocides) can be measured over time on the basis of an increase in the size of the community.
The assay measures the efficacy of one or more biocides at preventing growth of a consortium of bacteria in a dilute mineral salts medium. The medium contains (in mg/l) the following components: FeCl3.6H2O (1); CaCl2.2H2O (10); MgSO4.7H2O (22.5); (NH4)2SO4 (40); KH2PO4 (10); K2HPO4 (25.5); Yeast Extract (10); and glucose (100). After all components are added to deionized water, the pH of the medium is adjusted to 7.5. Following filter sterilization, aliquots are dispensed in 100 ul quantities to sterile microtiter plate wells. Dilutions of DBMAL and/or “Biocide B” are then added to the microtiter plate. After preparing the combinations of actives as illustrated below, each well is inoculated with 100 μl of a cell suspension containing ca. 1×10^6 cells per milliliter of a mixture of Pseudomonas aeruginosa, Klebsiella pneumoniae, Staphylococcus aureus, and Bacillus subtilis. The final total volume of medium in each well is 300 μl. […] The resulting matrix allows testing of eight concentrations of each active and 64 combinations of actives in the ratios (of actives).
Controls (not shown) contain the medium with no biocide added. After preparing the combinations of actives as illustrated above, each well is inoculated with 100 μl of a cell suspension containing ca. 1×10^6 cells per milliliter of a mixture of Pseudomonas aeruginosa, Klebsiella pneumoniae, Staphylococcus aureus, and Bacillus subtilis. The final total volume of medium in each well is 300 μl.
Immediately after the microtiter plates are prepared, the optical density (OD) readings for each well is measured at 580 nm and the plates are then incubated at 37° C. for 24 hr. After the incubation period, the plates are gently agitated before OD580 values are collected. The OD580 values at T0 are subtracted from T24 values to determine the total amount of growth (or lack thereof) that occurs. These values are used to calculate the percent inhibition of growth caused by the presence of each biocide and each of the 64 combinations. A 90% inhibition of growth is used as a threshold for calculating synergy index (SI) values with the following equation: Synergy Index=MDBMAL/CDBMAL+MB/CB
where • CDBMAL: Concentration of DBMAL required to inhibit ˜90% of bacterial growth when used alone • CB: Concentration of biocide (B) required to inhibit ˜90% of bacterial growth when used alone. • MDBMAL: Concentration of DBMAL required to inhibit ˜90% of bacterial growth when used in combination with biocide (B). • MB: Concentration of biocide (B) required to inhibit ˜90% of bacterial growth when used in combination with DBMAL The SI values are interpreted as follows: • SI<1: Synergistic combination • SI=1: Additive combination • SI>1: Antagonistic combination

[2] = system: mixture of Pseudomonas aeruginosa ATCC 10145 and Staphylococcus aureus ATCC 6538; assay: Kill assay (MBC, synergy index); format: cell-based; details: 37° C., 2 hours
Experimental: This assay is used as a preliminary evaluation of synergy between the actives. The procedure is as follows. A mineral salts solution (0.2203 g of CaCl2, 0.1847 g of MgSO4, and 0.2033 g of NaHCO3 in 1 L water, approximately pH 8) is inoculated with equal amounts (about 10^7 CFU/ml) of a mixture of Pseudomonas aeruginosa ATCC 10145 and Staphylococcus aureus ATCC 6538. Aliquots of the cell suspension are then treated with 2,2-dibromomalonamide (“DBMAL”), […], and their combinations at various concentration levels. […] The MBC values are then used to calculate a synergy index (SI) values.
Summaries of the kill assay results are presented in the individual Examples. In each table, MBC values for each biocide and the blends tested are presented Likewise, the Synergy Index (“SI”) values for the combinations are listed. SI is calculated with the following equation: Synergy Index=Ca/CA+Mb/CB […]

For “1-(3-chloroallyl)-3,5,7-triaza-1-azoniaadamantane chloride [CTAC]”, the “% Inhibition of growth by CTAC” value ([1]; CTAC Concn. 3.91 mg/l, 24 h) was 0%, the “% Inhibition of growth by CTAC” value ([1]; CTAC Concn. 7.81 mg/l, 24 h) was 18% and the “% Inhibition of growth by CTAC” value ([1]; CTAC Concn. 15.63 mg/l, 24 h) was 20%. For the same molecule, the “% Inhibition of growth by CTAC” value ([1]; CTAC Concn. 31.25 mg/l, 24 h) was 21%, the “% Inhibition of growth by CTAC” value ([1]; CTAC Concn. 62.5 mg/l, 24 h) was 0% and the “% Inhibition of growth by CTAC” value ([1]; CTAC Concn. 125.0 mg/l, 24 h) was 100%. The “% Inhibition of growth by CTAC” value ([1]; CTAC Concn. 250.0 mg/l, 24 h) was 100% and the “% Inhibition of growth by CTAC” value ([1]; CTAC Concn. 500.0 mg/l, 24 h) was 100%.

CC1(C)COCN1 [4,4-D, 4,4-Dimethyloxazolidine] gave an inhibition at 7.81 µg/mL ([1]; 24 h, 4,4-D alone 7.81 mg/l, read-out: % Inhibition of growth by 4,4-D) of 0%, an inhibition at 15.63 µg/mL ([1]; 24 h, 4,4-D alone 15.63 mg/l, read-out: % Inhibition of growth by 4,4-D) of 2% and an inhibition at 31.25 µg/mL ([1]; 24 h, 4,4-D alone 31.25 mg/l, read-out: % Inhibition of growth by 4,4-D) of 13%. The inhibition at 62.5 µg/mL ([1]; 24 h, 4,4-D alone 62.5 mg/l, read-out: % Inhibition of growth by 4,4-D) was 98%, the inhibition at 125 µg/mL ([1]; 24 h, 4,4-D alone 125.0 mg/l, read-out: % Inhibition of growth by 4,4-D) was 100% and the inhibition at 250 µg/mL ([1]; 24 h, 4,4-D alone 250.0 mg/l, read-out: % Inhibition of growth by 4,4-D) was 99%. It also gave an inhibition at 500 µg/mL ([1]; 24 h, 4,4-D alone 500.0 mg/l, read-out: % Inhibition of growth by 4,4-D) of 100% and an inhibition at 1000 µg/mL ([1]; 24 h, 4,4-D alone 1000.0 mg/l, read-out: % Inhibition of growth by 4,4-D) of 100%.

For ClC=CC[N+]12CN3CN(CN(C3)C1)C2 [CTAC, 1-(3-chloroallyl)-3,5,7-triaza-1-azoniaadamantane chloride], the inhibition at 1.95 µg/mL ([1]; 24 h, Table 6, CTAC alone 1.95 mg/l) was 0%, the inhibition at 3.91 µg/mL ([1]; 24 h, Table 6, CTAC alone 3.91 mg/l) was 0% and the inhibition at 7.81 µg/mL ([1]; 24 h, Table 6, CTAC alone 7.81 mg/l, read-out: % Inhibition of growth by CTAC) was 9%. For the same molecule, the inhibition at 15.625 µg/mL ([1]; 24 h, Table 6, CTAC alone 15.625 mg/l) was 0%, the inhibition at 31.25 µg/mL ([1]; 24 h, Table 6, CTAC alone 31.25 mg/l, read-out: % Inhibition of growth by CTAC) was 35% and the inhibition at 62.5 µg/mL ([1]; 24 h, Table 6, CTAC alone 62.5 mg/l, read-out: % Inhibition of growth by CTAC) was 41%. It also gave an inhibition at 125 µg/mL ([1]; 24 h, Table 6, CTAC alone 125.0 mg/l, read-out: % Inhibition of growth by CTAC) of 100% and an inhibition at 250 µg/mL ([1]; 24 h, Table 6, CTAC alone 250.0 mg/l, read-out: % Inhibition of growth by CTAC) of 98%.

CCC12COCN1COC2 [EBO, 7-ethyl bicyclooxazolidine] was tested, and the “% Inhibition of growth by EBO” value ([1]; EBO alone 7.81 mg/l, 24 h) was 0%, the “% Inhibition of growth by EBO” value ([1]; EBO alone 15.63 mg/l, 24 h) was 0% and the “% Inhibition of growth by EBO” value ([1]; EBO alone 31.25 mg/l, 24 h) was 0%. For the same molecule, the “% Inhibition of growth by EBO” value ([1]; EBO alone 62.5 mg/l, 24 h) was 3%, the “% Inhibition of growth by EBO” value ([1]; EBO alone 125.0 mg/l, 24 h) was 10% and the “% Inhibition of growth by EBO” value ([1]; EBO alone 250.0 mg/l, 24 h) was 71%. The “% Inhibition of growth by EBO” value ([1]; EBO alone 500.0 mg/l, 24 h) was 96% and the “% Inhibition of growth by EBO” value ([1]; EBO alone 1000.0 mg/l, 24 h) was 100%.

With O=CCCCC=O [Glut, glutaraldehyde] the “MBC (minimum biocide concentration needed to completely kill), biocide alone” value [2] was 29.6 µg/mL and the “concentration needed to provide at least 90% inhibition of growth” value ([1]; biocide alone, 24 h) was 125 mg/L.

For CCN1CN(CC)CN(CC)C1 [TEHT, 1,3,5-Triethylhexahydro-s-triazine], the inhibition at 0.19 µg/mL ([1]; 24 h, TEHT alone 0.19 mg/l, read-out: % Inhibition of growth by TEHT) was 10%, the inhibition at 0.39 µg/mL ([1]; 24 h, TEHT alone 0.39 mg/l, read-out: % Inhibition of growth by TEHT) was 11% and the inhibition at 0.78 µg/mL ([1]; 24 h, TEHT alone 0.78 mg/l, read-out: % Inhibition of growth by TEHT) was 10%. For the same molecule, the inhibition at 1.56 µg/mL ([1]; 24 h, TEHT alone 1.56 mg/l, read-out: % Inhibition of growth by TEHT) was 22%, the inhibition at 3.13 µg/mL ([1]; 24 h, TEHT alone 3.13 mg/l, read-out: % Inhibition of growth by TEHT) was 49% and the inhibition at 6.25 µg/mL ([1]; 24 h, TEHT alone 6.25 mg/l, read-out: % Inhibition of growth by TEHT) was 82%. It also gave an inhibition at 12.5 µg/mL ([1]; 24 h, TEHT alone 12.5 mg/l, read-out: % Inhibition of growth by TEHT) of 98% and an inhibition at 25 µg/mL ([1]; 24 h, TEHT alone 25.0 mg/l, read-out: % Inhibition of growth by TEHT) of 100%.

O=[N+]([O-])C(CO)(CO)CO [TN, tris(hydroxymethyl)nitromethane] was tested, and the inhibition at 7.81 µg/mL ([1]; 24 h, TN alone 7.81 mg/l, read-out: % Inhibition of growth by TN) was 0%, the inhibition at 15.63 µg/mL ([1]; 24 h, TN alone 15.63 mg/l, read-out: % Inhibition of growth by TN) was 4% and the inhibition at 31.25 µg/mL ([1]; 24 h, TN alone 31.25 mg/l, read-out: % Inhibition of growth by TN) was 0%. The inhibition at 62.5 µg/mL ([1]; 24 h, TN alone 62.5 mg/l, read-out: % Inhibition of growth by TN) was 50%, the inhibition at 125 µg/mL ([1]; 24 h, TN alone 125.0 mg/l, read-out: % Inhibition of growth by TN) was 100% and the inhibition at 250 µg/mL ([1]; 24 h, TN alone 250.0 mg/l, read-out: % Inhibition of growth by TN) was 100%. It also gave an inhibition at 500 µg/mL ([1]; 24 h, TN alone 500.0 mg/l, read-out: % Inhibition of growth by TN) of 100% and an inhibition at 1000 µg/mL ([1]; 24 h, TN alone 1000.0 mg/l, read-out: % Inhibition of growth by TN) of 100%.

Reference: patent publication US8747873B2, “Compositions of dibromomalonamide and their use as biocides” (Dow Global Technologies LLC, priority 2012, dated 2014)
